What was measured:
[1] = tested on: HCC1806 triple-negative breast cancer cells; test: MTS cell viability assay (72 h); assay type: cell-based, human; conditions: Homo sapiens, HCC1806; 72 h incubation, MTS; read-out: IC50, cytotoxicity against HCC1806 cells
Procedure: HCC1806 cells were grown in RPMI 1640 medium, and MTS assays were performed to check cell viability. Cells (2500–3000 cells/well) were grown in flat-bottomed 96-well plates for 24 h, and then serial dilutions of the compound were added, and cells were allowed to incubate for a further 72 h. At the end of the 72-h incubation period, the medium was removed, and 100 μL of a solution including a mixture of MTS and PMS was added. The cells were incubated for 1.5 h at 37 °C in a humidified incubator with 5% CO2 to allow viable cells to convert tetrazolium salts to formazan. Conversion to formazan was measured by absorbance (490 nm) using a BioTek PowerWave-X absorbance microplate meter. The data collected were normalized using a DMSO-treated control (100% viability) and a background control (0% viability) to verify growth inhibition.

[2] = PS SPR binding assay (Biacore T200, L1 chip); conditions: DOPC/DOPS (3:1, v/v) liposomes on L1 chip, 25 °C
Procedure: Phospholipids, 1,2-dioleoyl-sn-glycero-3-phosphocholine (DOPC) and 1,2-dioleoyl-sn-glycero-3-[phosphate-L-serine] (DOPS) were obtained as chloroform solutions from Avanti Polar Lipids (Alabaster, AL, USA). These stock solutions were mixed in the specified proportions. A 0.4 mL aliquot of the lipid solution at a 10 mg/mL concentration was added to a round bottom flask and evaporated under a stream of N2 to provide a thin lipid film. The lipid films were rehydrated in PBS buffer for at least 1 h at room temperature. The resulting suspension was extruded through a 100 nm polycarbonate filter using an Avanti MiniExtruder according to the manufacturer’s instructions. Zeta potential (ZP) and liposome size distribution were recorded by dynamic light scattering (DLS) and microelectrophoresis using a Zetasizer Nano ZS instrument. The binding kinetics between conjugates and liposomes were recorded at 25 °C using a Biacore T200 biosensor equipped with an L1 sensor chip (GE Healthcare, Chicago, IL, USA). The new sensor chip was pretreated with running buffer (5% DMSO in phosphate buffered saline (PBS) at a pH of 7.4) and two consecutive 30 s pulses of 2:3 v/v 50 mM HCl/isopropanol at a flow rate of 30 μL/min. New liposome capture plates were prepared for each binding cycle. In PBS buffer, liposomes are diluted to 0.5–1 mM and captured to saturation in isolated flow cells at 2–5 μL/min (30–150 s). […]

[3] = tested on: HCC1806 human triple-negative breast cancer tumors; test: HCC1806 xenograft tumor efficacy; assay type: in vivo, female nude mice; conditions: 0.3 mg/kg i.v. twice weekly for 2 weeks
Procedure: Cancer cells suspended in RPMI 1640 medium (11835-030, Thermo Fisher Scientific, Waltham, MA, USA) were mixed with Matrigel™ (356237, BD Biosciences, Franklin Lakes, NJ, USA) in a 1:1 ratio. Human triple-negative breast cancer HCC1806 (1 × 10^6 cells) cells were inoculated subcutaneously into the left flank of 6-week-old female nude mice (BioLASCO Taiwan, Taipei, Taiwan) using a 1 mL syringe with a 24G needle (AN-2425R, Terumo Medical Corp., Tokyo, Japan). Tumor dimensions were measured twice weekly using electronic calipers (FOW54-200-777, PRO-MAX), and the volume of tumor grown subcutaneously (mm^3) was calculated by the formula Volume = (length × width^2)/2. A combination of 10% DMA/20% Cremophor EL/70% 5% dextrose injection (D5W) was formulated to treat HCC1806 xenograft tumors. Mice with HCC1806 tumors were grouped and administered the indicated dosing regimen of 1 mg/kg for the conjugate and 0.3 mg/kg for the cytotoxic payloads DM1 and DM4 twice-weekly (day 1 and day 4) for 2 weeks when the mean tumor volume was approximately 200–250 mm^3 or 850–900 mm^3 (large tumors). The conjugate dose of 2 mg/kg was administered weekly for the large tumor study. The body weight and tumor volume of mice were measured twice weekly. In addition, a previously reported oncogene-induced, sorafenib-resistant HCC mouse model was used in the current study to examine the antitumor activities of synthesized compounds. Briefly, plasmids including transposase (pCMV(CAT)T7-SB100), human Akt1, and luciferase (pKT2/CLP-AKT-2A-OVA-HBc-HBs-LUC) and the N-Ras V12 mutant (pT/Caggs-NRASV12) were hydrodynamically injected (HDI) and the liver was monitored for the appearance of HCC. HCC mice with a total flux of more than 1 × 10^9 photons/s from IVIS imaging were used as treatment conjugates. The indicated conjugate was administered intravenously at 1 mg/kg 3 times per week over 2 weeks. IVIS imaging was repeatedly performed to follow tumor progression, and tumor tissue from treated HCC mice was collected for histological examination and RNA extraction after administration.

[4] = Plasma stability, 24 h incubation with plasma (HPLC); assay type: in vitro ADME
Procedure: Zn8_DM1: 0H VS. 24H in plasma.
Zn10_DM4: 0H VS. 24H in plasma.
Supporting Figure S1. Incubation of Linker-drug 3 and 4, conjugates Zn8_DM1 and
Zn10_DM4, DM1 and DM4 with plasma for 24 hrs. HPLC condition is listed below. […]

## COc1cc2cc(c1Cl)N(C)C(=O)C[C@H](OC(=O)[C@H](C)N(C)C(=O)CCS)[C@]1(C)O[C@H]1[C@H](C)[C@@H]1C[C@@](O)(NC(=O)O1)[C@H](OC)/C=C/C=C(\C)C2 [DM1, (14S,16S,32R,33S,2R,4S,10E,12E,14R)-86-chloro-14-hydroxy-85,14-dimethoxy-33,2,7,10-tetramethyl-12,6-dioxo-7-aza-1(6,4)-oxazinana-3(2,3)-oxirana-8(1,3)-benzenacyclotetradecaphane-10,12-dien-4-yl N-(3-mercaptopropanoyl)-N-methyl-D-alaninate, reference compound]
[1]
  IC50: 21 nM
[2]
  association with PS-coated liposomes (SPR): did not show association properties

## COc1cc2cc(c1Cl)N(C)C(=O)CC(OC(=O)C(C)N(C)C(=O)CCC(C)(C)S)C1(C)OC1C(C)C1CC(O)(NC(=O)O1)C(OC)C=CC=C(C)C2 [DM4, (14R,16R,33R,2S,4S,10E,12Z,14S)-86-chloro-14-hydroxy-85,14-dimethoxy-33,2,7,10-tetramethyl-12,6-dioxo-7-aza-1(6,4)-oxazinana-3(2,3)-oxirana-8(1,3)-benzenacyclotetradecaphane-10,12-dien-4-yl N-(4-mercapto-4-methylpentanoyl)-N-methyl-D-alaninate, reference compound]
[1]
  IC50: 7 nM
[3]
  anti-HCC1806 tumor growth activity of free payload: marginal improvement in its antitumor activity

## COc1cc2cc(c1Cl)N(C)C(=O)C[C@H](OC(=O)[C@H](C)N(C)C(=O)CCSC(=O)c1ccc(CN(CCOCCOCCNC(=O)OC(C)(C)C)C(=O)C3(c4ccc(Cl)cc4)CCCCC3)cc1)[C@]1(C)O[C@H]1[C@H](C)[C@@H]1C[C@@](O)(NC(=O)O1)[C@H](OC)/C=C/C=C(\C)C2 [compound 3, (14R,16R,33R,2S,4S,10E,12Z,14S)-86-Chloro-14-hydroxy-85,14-dimethoxy-33,2,7,10-tetramethyl-12,6-dioxo-7-aza-1(6,4)-oxazinana-3(2,3)-oxirana-8(1,3)-benzenacyclotetradecaphane-10,12-dien-4-yl N-(3-((4-(2-(1-(4-chlorophenyl)cyclohexane-1-carbonyl)-14,14-dimethyl-12-oxo-5,8,13-trioxa-2,11-diazapentadecyl)benzoyl)thio)propanoyl)-N-methyl-L-alaninate]
[4]
  cleavage of the maytansinoid after incubation with plasma: No cleavage

## COc1cc2cc(c1Cl)N(C)C(=O)CC(OC(=O)C(C)N(C)C(=O)CCC(C)(C)SC(=O)c1ccc(CN(CCOCCOCCNC(=O)OC(C)(C)C)C(=O)C3(c4ccc(Cl)cc4)CCCCC3)cc1)C1(C)OC1C(C)C1CC(O)(NC(=O)O1)C(OC)C=CC=C(C)C2 [compound 4, (14R,16R,33R,2S,4S,10E,12Z,14S)-86-Chloro-14-hydroxy-85,14-dimethoxy-33,2,7,10-tetramethyl-12,6-dioxo-7-aza-1(6,4)-oxazinana-3(2,3)-oxirana-8(1,3)-benzenacyclotetradecaphane-10,12-dien-4-yl N-(4-((4-(2-(1-(4-chlorophenyl)cyclohexane-1-carbonyl)-14,14-dimethyl-12-oxo-5,8,13-trioxa-2,11-diazapentadecyl)benzoyl)thio)-4-methylpentanoyl)-N-methyl-D-alaninate]
[4]
  cleavage of the maytansinoid after incubation with plasma: No cleavage
